Measurements: patent US20060062753A1, “Polymeric quaternary ammonium salts useful as corrosion inhibitors and biocides” (priority 2004, published 2006)

Assays:
[1] = system: planktonic sulfate reducing bacteria (SRB); assay: Biocide test API RP 38, sulfate reducing bacteria; type: cell-based; conditions: 4 hours contact at 37° C., growth monitored 15 days
Description: (§1) The effectiveness of the polymeric quaternary ammonium salts as a biocide was tested using the method shown in the API Recommended Practice for Biological Analysis of Subsurface Injection Waters, API RP 38, March, 1982, which is hereby fully incorporated by reference. The effectiveness of the salts as a biocide was tested using planktonic sulfate reducing bacteria (SRB), Aerobic Acid Producing Bacteria (AAPB) and Anaerobic Acid Producing (AnAP) Bacteria.
(§2) The desired concentrations of the polymeric quaternary ammonium salt biocide were added to clean sterilized bottles. Two bottles contained no biocides and served as controls. Under a N2 blanket, 10 mL of actively growing bacterial culture (24 hours old) was added to each of the bottles, and a 1 mL sample was taken and serially diluted into six bottles. The solutions were mixed well and the bottles were placed in an incubator at 37° C. for 4 hours. At the end of this period, 1 mL samples from each of the treated bottles were taken and serially diluted into 3 bottles. Samples from the control bottles were serially diluted into six bottles. All bottles were then placed in an incubator at 37° C. and bacterial growth was monitored for 15 days.

[2] = system: Aerobic Acid Producing Bacteria (AAPB); assay: Biocide test API RP 38, aerobic acid producing bacteria; type: cell-based; conditions: 4 hours contact at 37° C., growth monitored 15 days
Description: as §1, §2

[3] = system: Anaerobic Acid Producing (AnAP) Bacteria; assay: Biocide test API RP 38, anaerobic acid producing bacteria; type: cell-based; conditions: 4 hours contact at 37° C., growth monitored 15 days
Description: as §1, §2

[4] = Standard testing procedures for determining biodegradability
Source text: The present invention provides compositions comprising polymeric quaternary ammonium salts and methods of their use as a corrosion inhibitor and/or biocide. The polymeric quaternary ammonium salts described herein are highly biodegradable, thereby making these compositions highly desirable for use in corrosion systems that require careful consideration concerning environmental impact, such as on offshore drilling platforms. […] For purposes of comparison, sodium benzoate was about 85.5% biodegraded after 7 days, about 95% biodegraded after 14 days and 100% biodegraded after 28 days.

| SMILES | Bacterial cells/ml, sulfate reducing bacteria ([1]; dosage 31.3 ppm) | Bacterial cells/ml, sulfate reducing bacteria ([1]; dosage 62.5 ppm) | Bacterial cells/ml, Aerobic Acid Producing Bacteria (AAP) ([2]; dosage 100 ppm) | Bacterial cells/ml, Aerobic Acid Producing Bacteria (AAP) ([2]; dosage 200 ppm) | Bacterial cells/ml, Aerobic Acid Producing Bacteria (AAP) ([2]; dosage 375 ppm) | Bacterial cells/ml, Aerobic Acid Producing Bacteria (AAP) ([2]; dosage 500 ppm) | Bacterial cells/ml, Anaerobic Acid Producing (AnAP) Bacteria ([3]; dosage 31.3 ppm) | Bacterial cells/ml, Anaerobic Acid Producing (AnAP) Bacteria ([3]; dosage 62.5 ppm) | Bacterial cells/ml, Anaerobic Acid Producing (AnAP) Bacteria ([3]; dosage 125 ppm) | biodegraded ([4]; after 7 days) | biodegraded ([4]; after 14 days) | biodegraded ([4]; after 28 days) [%] |
| --- | --- | --- | --- | --- | --- | --- | --- | --- | --- | --- | --- | --- |
| O=CCCCC=O [Glutaraldehyde] | 10^1 cells/ml | 0^ cells/ml | ≧10^3 cells/ml | ≧10^3 cells/ml | 10^2 cells/ml | 10^1 cells/ml | 10^2 cells/ml | ≧10^3 cells/ml | ≧10^3 cells/ml | – | – | – |
| O=C([O-])c1ccccc1.[Na+] [sodium benzoate] | – | – | – | – | – | – | – | – | – | about 85.5% | about 95% | 100 |
